Results taken from publication PMC4770093, “The role of kinetic context in apparent biased agonism at GPCRs” (Nature Communications, 2016).
“And” between values parts separate entries of the source, which are not always exact repeats. Identical values can stand only once.

Key:
D2LR [1] = biological target: T1, D2LR (Homo sapiens, UniProt P14416); experiment: Inhibition of forskolin-induced cAMP production (BRET CAMYEL biosensor); settings: for Emax cAMP: relative to the maximal response of ropinirole; for Inhibition of cAMP production measured using a CAMYEL BRET biosensor, Net BRET: single experiments n = 1, 2, 3; on Inhibition of cAMP production measured using a CAMYEL BRET biosensor, Net BRET: test concentration or dose not given here
T1 sequence (P14416 whole entry): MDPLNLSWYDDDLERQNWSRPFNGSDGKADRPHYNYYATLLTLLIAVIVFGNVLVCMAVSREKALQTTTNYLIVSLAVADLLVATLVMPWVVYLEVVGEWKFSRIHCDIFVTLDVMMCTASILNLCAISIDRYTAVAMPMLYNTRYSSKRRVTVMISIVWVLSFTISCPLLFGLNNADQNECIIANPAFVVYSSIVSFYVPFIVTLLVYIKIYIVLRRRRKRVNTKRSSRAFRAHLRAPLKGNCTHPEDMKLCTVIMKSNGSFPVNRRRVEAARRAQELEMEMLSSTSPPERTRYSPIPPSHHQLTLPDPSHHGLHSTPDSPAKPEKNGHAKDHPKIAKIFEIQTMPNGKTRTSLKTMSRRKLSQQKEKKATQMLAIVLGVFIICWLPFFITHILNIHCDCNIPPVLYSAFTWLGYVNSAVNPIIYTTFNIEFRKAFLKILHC

D2LR [2] = biological target: T1, D2LR; experiment: xCELLigence cellular impedance (CI) assay; format: cell-based; design: expressed in transfected cells; settings: for Emax CI: relative to the maximal response of ropinirole
Experimental: Changes in CI on ligand stimulation were measured using the xCELLigence system (Roche Applied Science). The baseline cell index of each well of a 96-well E-plate was measured in the presence of growth medium before cell seeding. Cells were seeded at a density of 20,000 cells per well and grown for 16–20 h followed by 4 h serum starvation. Cells were treated with the ligands and the cell index values were obtained immediately after ligand stimulation every 15 s for a total time of 90 min. The retrieved cell index values were then normalized by dividing the cell index at the time of ligand addition followed by subtraction of the vehicle control at each time point.

[3] = 5 minute timepoint, Flp-In-CHO-D2LR
[4] = 5 minute timepoint, dopamine as reference agonist

In the case of `CCCN1CCC[C@@H](c2cccc(O)c2)C1` [S-3PPP, (S)-(-)-3-(3-hydroxyphenyl)-N-propylpiperidine], the “Emax cAMP” value (D2LR [1]; 2 min) is reported as 73 ± 1.9, the “Emax cAMP” value (D2LR [1]; 5 min) is reported as 73 ± 2.0 and the “Log(τ/KA) cAMP” value (D2LR [1]; [3]) is reported as 6.65 ± 0.06. For the same compound, the “ΔLog(τ/KA) cAMP” value (D2LR [1]; [4]) was -1.40 ± 0.08, the “Emax cAMP” value (D2LR [1]; 10 min) was 70 ± 1.7 and the “Emax cAMP” value (D2LR [1]; 15 min) was 70 ± 1.9. For the same compound, the “Emax cAMP” value (D2LR [1]; 30 min) was 71 ± 2.5, the “Emax cAMP” value (D2LR [1]; 45 min) was 64 ± 1.4 and the “Emax cAMP” value (D2LR [1]; 60 min) was 53 ± 2.4. The “Emax cAMP” value (D2LR [1]; 75 min) was 66 ± 1.4, the “Emax cAMP” value (D2LR [1]; 90 min) was 60 ± 0.8 and the “Inhibition of cAMP production measured using a CAMYEL BRET biosensor, Net BRET” value (“Inhibition of cAMP production measured” below) (D2LR [1]; time 2.21667 mins) was 0.05465 and 0.08466 and 0.07325. For the same compound, the “Inhibition of cAMP production measured” value (D2LR [1]; time 2.58333 mins) was 0.05879 and 0.0813 and 0.07011, the “Inhibition of cAMP production measured” value (D2LR [1]; time 2.95 mins) was 0.05876 and 0.09107 and 0.0617 and the “Inhibition of cAMP production measured” value (D2LR [1]; time 3.31667 mins) was 0.05926 and 0.0872 and 0.07317. The “Inhibition of cAMP production measured” value (D2LR [1]; time 3.68333 mins) was 0.06005 and 0.08327 and 0.07534, the “Inhibition of cAMP production measured” value (D2LR [1]; time 4.05 mins) was 0.08108 and 0.08891 and 0.07666 and the “Inhibition of cAMP production measured” value (D2LR [1]; time 4.41667 mins) was 0.07291 and 0.08859 and 0.07671. The “Inhibition of cAMP production measured” value (D2LR [1]; time 4.78333 mins) was 0.08207 and 0.09068 and 0.07598, the “Inhibition of cAMP production measured” value (D2LR [1]; time 5.15 mins) was 0.088 and 0.08877 and 0.07517 and the “Inhibition of cAMP production measured” value (D2LR [1]; time 5.51667 mins) was 0.08023 and 0.0868 and 0.07779. For the same compound, the “Inhibition of cAMP production measured” value (D2LR [1]; time 5.88333 mins) was 0.08241 and 0.08562 and 0.08229, the “Inhibition of cAMP production measured” value (D2LR [1]; time 6.25 mins) was 0.0777 and 0.08078 and 0.07833 and the “Inhibition of cAMP production measured” value (D2LR [1]; time 6.61667 mins) was 0.07786 and 0.08188 and 0.07763. The “Inhibition of cAMP production measured” value (D2LR [1]; time 6.98333 mins) was 0.08463 and 0.08155 and 0.08058, the “Inhibition of cAMP production measured” value (D2LR [1]; time 7.35 mins) was 0.08243 and 0.07743 and 0.07354 and the “Inhibition of cAMP production measured” value (D2LR [1]; time 7.71667 mins) was 0.08152 and 0.0852 and 0.08224. The “Inhibition of cAMP production measured” value (D2LR [1]; time 8.08333 mins) was 0.08811 and 0.08583 and 0.07638, the “Inhibition of cAMP production measured” value (D2LR [1]; time 8.45 mins) was 0.08386 and 0.08753 and 0.07171 and the “Inhibition of cAMP production measured” value (D2LR [1]; time 8.81667 mins) was 0.09076 and 0.08128 and 0.08398. For the same compound, the “Inhibition of cAMP production measured” value (D2LR [1]; time 9.18333 mins) was 0.08865 and 0.08603 and 0.07348, the “Inhibition of cAMP production measured” value (D2LR [1]; time 9.55 mins) was 0.08292 and 0.0837 and 0.08159 and the “Inhibition of cAMP production measured” value (D2LR [1]; time 9.91667 mins) was 0.09198 and 0.07873 and 0.08223. For the same compound, the “Inhibition of cAMP production measured” value (D2LR [1]; time 10.2833 mins) was 0.08942 and 0.08142 and 0.08126, the “Inhibition of cAMP production measured” value (D2LR [1]; time 10.65 mins) was 0.09447 and 0.08477 and 0.08651 and the “Inhibition of cAMP production measured” value (D2LR [1]; time 11.0167 mins) was 0.09406 and 0.0745 and 0.08653. For the same compound, the “Inhibition of cAMP production measured” value (D2LR [1]; time 11.3833 mins) was 0.09952 and 0.0798 and 0.08963, the “Inhibition of cAMP production measured” value (D2LR [1]; time 11.75 mins) was 0.09797 and 0.09183 and 0.0831 and the “Inhibition of cAMP production measured” value (D2LR [1]; time 12.1167 mins) was 0.0995 and 0.08775 and 0.0921. For the same compound, the “Inhibition of cAMP production measured” value (D2LR [1]; time 12.4833 mins) was 0.08767 and 0.08489 and 0.09746, the “Inhibition of cAMP production measured” value (D2LR [1]; time 12.85 mins) was 0.09546 and 0.09264 and 0.08756 and the “Inhibition of cAMP production measured” value (D2LR [1]; time 13.2167 mins) was 0.09597 and 0.0888 and 0.1009. For the same compound, the “Inhibition of cAMP production measured” value (D2LR [1]; time 13.5833 mins) was 0.09698 and 0.09198 and 0.09379, the “Inhibition of cAMP production measured” value (D2LR [1]; time 13.95 mins) was 0.09269 and 0.09222 and 0.0998 and the “Inhibition of cAMP production measured” value (D2LR [1]; time 14.3167 mins) was 0.1016. The “Emax CI” value (D2LR [2]; 2 min) was 46 ± 3.7, the “Emax CI” value (D2LR [2]; 5 min) was 46 ± 3.0 and the “Log(τ/KA) Cellular impedance” value (D2LR [2]; [3]) was 7.34 ± 0.10. For the same compound, the “ΔLog(τ/KA) Cellular impedance” value (D2LR [2]; [4]) was -1.22 ± 0.11, the “Emax CI” value (D2LR [2]; 10 min) was 36 ± 2.5 and the “Emax CI” value (D2LR [2]; 15 min) was 32 ± 2.6. For the same compound, the “Emax CI” value (D2LR [2]; 30 min) was 26 ± 2.5, the “Emax CI” value (D2LR [2]; 45 min) was 23 ± 2.5 and the “Emax CI” value (D2LR [2]; 60 min) was 21 ± 2.5. For the same compound, the “Emax CI” value (D2LR [2]; 75 min) was 19 ± 2.4 and the “Emax CI” value (D2LR [2]; 90 min) was 17 ± 2.3.
